Reference: US11572369B2, “Bicyclic pyridine compositions and methods of using the same for cancer therapy” (UNIVERSITY OF SOUTH CAROLINA, priority 2019, dated 2023)

What was measured:
Assay in all cases: KINOMEscan
Type in all cases: binding
Conditions in all cases: 2000 nM
FLT1 = target: T1, FLT1 (Homo sapiens, UniProt P17948)
T1 construct: purchased DiscoveRx (KINOMEscan scanMAX panel)

LRRK2(G2019S) = target: T2, LRRK2(G2019S) (Homo sapiens, UniProt Q5S007, G2019S)
T2 construct: purchased KINOMEscan (DiscoveRx) panel service

LKB1 = target: T3, LKB1 (Homo sapiens, UniProt Q15831)
T3 construct: purchased KINOMEscan (DiscoveRx) panel service

FLT3(D835H) = target: T4, FLT3(D835H) (Homo sapiens, UniProt P36888, D835H)
T4 construct: purchased DiscoveRx (KINOMEscan scanMAX panel)

NEK9 = target: T5, NEK9 (Homo sapiens, UniProt Q8TD19)
T5 construct: DNA label (qPCR read-out); purchased KINOMEscan (ScanMAX panel service)

DMPK = target: T6, DMPK (Homo sapiens, UniProt Q09013)
T6 construct: DNA label (qPCR read-out); purchased KINOMEscan (DiscoveRx) panel

TIE2 = target: T7, TIE2 (Homo sapiens, UniProt Q02763)
T7 construct: DNA label (qPCR read-out); purchased KINOMEscan (DiscoveRx) ScanMAX panel

PHKG1 = target: T8, PHKG1 (Homo sapiens, UniProt Q16816)
T8 construct: DNA label (for qPCR read-out); purchased DiscoveRx (KINOMEscan scanMAX service)

PIK4CB = target: T9, PIK4CB (Homo sapiens, UniProt Q9UBF8)
T9 construct: DNA label; purchased DiscoveRx (KINOMEscan scanMAX panel)

PIP5K2C = target: T10, PIP5K2C (Homo sapiens, UniProt Q8TBX8)
T10 construct: DNA label (qPCR read-out); purchased KINOMEscan (DiscoveRx) panel

FLT3(K663Q) = target: T11, FLT3(K663Q) (Homo sapiens, UniProt P36888, K663Q)
T11 construct: purchased KINOMEscan (DiscoveRx)

EGFR(E746-A750del) = target: T12, EGFR(E746-A750del) (Homo sapiens, UniProt P00533, DEL746-750)
T12 construct: purchased DiscoveRx (KINOMEscan scanMAX panel)

FES = target: T13, FES (Homo sapiens, UniProt P07332)
T13 construct: purchased DiscoveRx (KINOMEscan scanMAX panel)

MKNK2 = target: T14, MKNK2 (Homo sapiens, UniProt Q9HBH9)
T14 construct: DNA label (qPCR read-out); purchased KINOMEscan scanMAX panel (DiscoveRx)

EGFR(G719C) = target: T15, EGFR(G719C) (Homo sapiens, UniProt P00533, G719C)
T15 construct: purchased DiscoveRx (KINOMEscan scanMAX panel)

FGFR1 = target: T16, FGFR1 (Homo sapiens, UniProt P11362)
T16 construct: purchased DiscoveRx (KINOMEscan scanMAX panel)

RIOK2 = target: T17, RIOK2 (Homo sapiens, UniProt Q9BVS4)
T17 construct: DNA label (qPCR read-out); purchased DiscoverX (assay service)

MKNK1 = target: T18, MKNK1 (Homo sapiens, UniProt Q9BUB5)
T18 construct: DNA label (qPCR read-out); purchased KINOMEscan scanMAX panel (DiscoveRx)

TAK1 = target: T19, TAK1 (Homo sapiens, UniProt O43318)
T19 construct: DNA label (for qPCR read-out); purchased DiscoveRx (KINOMEscan scanMAX panel, contract assay)

MET(Y1235D) = target: T20, MET(Y1235D) (Homo sapiens, UniProt P08581, Y1235D)
T20 construct: purchased DiscoveRx (KINOMEscan scanMAX panel, service)

MUSK = target: T21, MUSK (Homo sapiens, UniProt O15146)
T21 construct: DNA label (for qPCR read-out); purchased KINOMEscan scanMAX panel (DiscoveRx)

LATS2 = target: T22, LATS2 (Homo sapiens, UniProt Q9NRM7)
T22 construct: purchased KINOMEscan (DiscoveRx) panel service

TSSK3 = target: T23, TSSK3 (Homo sapiens, UniProt Q96PN8)
T23 construct: DNA label (for qPCR read-out); purchased DiscoveRx (KINOMEscan scanMAX panel)

ABL1-nonphosphorylated = ABL1-nonphosphorylated (Homo sapiens, UniProt P00519)
MAP4K5 = MAP4K5 (Homo sapiens, UniProt Q9Y4K4)
JNK2 = target: T24, JNK2 (Homo sapiens, UniProt P45984)
T24 construct: DNA label (for qPCR read-out); purchased DiscoveRx (KINOMEscan scanMAX panel)

CDC2L2 = target: T25, CDC2L2 (Homo sapiens, UniProt Q9UQ88)
T25 construct: purchased DiscoverX (KINOMEscan service)

BTK = target: T26, BTK (Homo sapiens, UniProt Q06187)
T26 construct: DNA label (for qPCR read-out); purchased KINOMEscan scanMAX panel (DiscoveRx)

YANK2 = target: T27, YANK2 (Homo sapiens, UniProt Q9NY57)
T27 construct: purchased KINOMEscan (DiscoveRx) panel service

AURKB = target: T28, AURKB (Homo sapiens, UniProt Q96GD4)
T28 construct: DNA label (qPCR read-out); purchased KINOMEscan scanMAX panel (DiscoveRx)

p38-delta = target: T29, p38-delta (Homo sapiens, UniProt O15264)
T29 construct: purchased DiscoverX (KINOMEscan service)

CIT = target: T30, CIT (Homo sapiens, UniProt O14578)
T30 construct: DNA label (for qPCR read-out); purchased DiscoveRx (KINOMEscan scanMAX service)

NEK5 = target: T31, NEK5 (Homo sapiens, UniProt Q6P3R8)
T31 construct: DNA label (qPCR read-out); purchased KINOMEscan (ScanMAX panel service)

MLK2 = target: T32, MLK2 (Homo sapiens, UniProt Q02779)
T32 construct: DNA label (qPCR read-out); purchased KINOMEscan scanMAX panel (DiscoveRx)

[1] = target: T33, RSK2(Kin.Dom.2-C-terminal) (Homo sapiens, UniProt P51812)
T33 construct: RSK2(Kin.Dom.2); purchased DiscoveRx (KINOMEscan scanMAX panel)

T21 sequence (O15146 24-869): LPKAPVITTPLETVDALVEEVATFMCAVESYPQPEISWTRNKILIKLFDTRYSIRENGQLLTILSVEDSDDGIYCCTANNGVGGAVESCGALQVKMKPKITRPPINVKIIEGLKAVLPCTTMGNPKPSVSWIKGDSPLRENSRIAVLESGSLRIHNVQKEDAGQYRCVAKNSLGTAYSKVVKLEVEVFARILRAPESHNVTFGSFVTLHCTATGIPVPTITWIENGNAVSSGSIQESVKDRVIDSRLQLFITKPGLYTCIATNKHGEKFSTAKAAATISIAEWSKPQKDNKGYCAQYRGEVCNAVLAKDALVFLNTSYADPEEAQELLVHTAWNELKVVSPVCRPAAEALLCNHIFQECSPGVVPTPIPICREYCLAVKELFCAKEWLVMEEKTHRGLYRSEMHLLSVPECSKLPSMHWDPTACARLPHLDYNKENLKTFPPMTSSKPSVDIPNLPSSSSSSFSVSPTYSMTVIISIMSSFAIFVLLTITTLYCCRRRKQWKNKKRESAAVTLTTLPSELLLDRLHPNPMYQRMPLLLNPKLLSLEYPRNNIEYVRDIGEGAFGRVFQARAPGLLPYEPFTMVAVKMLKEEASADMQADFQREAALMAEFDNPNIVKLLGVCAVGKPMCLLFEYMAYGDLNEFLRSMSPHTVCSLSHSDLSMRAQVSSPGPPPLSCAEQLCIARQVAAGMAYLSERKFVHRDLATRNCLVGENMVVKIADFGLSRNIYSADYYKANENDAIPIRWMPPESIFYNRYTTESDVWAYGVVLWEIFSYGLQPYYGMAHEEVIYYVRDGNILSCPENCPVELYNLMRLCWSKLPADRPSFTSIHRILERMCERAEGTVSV
T8 sequence (Q16816 whole entry): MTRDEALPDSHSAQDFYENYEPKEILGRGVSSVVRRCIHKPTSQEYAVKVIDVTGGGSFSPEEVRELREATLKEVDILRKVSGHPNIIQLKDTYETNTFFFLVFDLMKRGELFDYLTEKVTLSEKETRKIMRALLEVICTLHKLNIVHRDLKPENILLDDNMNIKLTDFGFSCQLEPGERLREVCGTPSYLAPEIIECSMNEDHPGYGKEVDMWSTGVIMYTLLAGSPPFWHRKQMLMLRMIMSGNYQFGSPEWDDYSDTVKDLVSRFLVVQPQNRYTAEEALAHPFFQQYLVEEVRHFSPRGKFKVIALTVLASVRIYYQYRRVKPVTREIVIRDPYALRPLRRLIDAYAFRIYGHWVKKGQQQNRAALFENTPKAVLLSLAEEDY
T3 sequence (Q15831 whole entry): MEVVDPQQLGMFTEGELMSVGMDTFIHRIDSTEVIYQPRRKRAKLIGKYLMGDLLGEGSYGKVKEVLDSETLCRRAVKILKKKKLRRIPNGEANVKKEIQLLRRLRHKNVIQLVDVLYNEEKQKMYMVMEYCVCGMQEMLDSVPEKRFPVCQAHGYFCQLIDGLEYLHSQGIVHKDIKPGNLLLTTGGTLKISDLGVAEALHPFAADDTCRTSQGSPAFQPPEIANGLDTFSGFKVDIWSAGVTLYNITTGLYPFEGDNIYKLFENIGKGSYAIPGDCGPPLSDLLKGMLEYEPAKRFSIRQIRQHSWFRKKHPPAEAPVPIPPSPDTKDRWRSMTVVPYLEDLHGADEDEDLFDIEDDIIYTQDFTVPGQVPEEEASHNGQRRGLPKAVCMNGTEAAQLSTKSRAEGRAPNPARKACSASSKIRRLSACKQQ
T29 sequence (O15264 whole entry): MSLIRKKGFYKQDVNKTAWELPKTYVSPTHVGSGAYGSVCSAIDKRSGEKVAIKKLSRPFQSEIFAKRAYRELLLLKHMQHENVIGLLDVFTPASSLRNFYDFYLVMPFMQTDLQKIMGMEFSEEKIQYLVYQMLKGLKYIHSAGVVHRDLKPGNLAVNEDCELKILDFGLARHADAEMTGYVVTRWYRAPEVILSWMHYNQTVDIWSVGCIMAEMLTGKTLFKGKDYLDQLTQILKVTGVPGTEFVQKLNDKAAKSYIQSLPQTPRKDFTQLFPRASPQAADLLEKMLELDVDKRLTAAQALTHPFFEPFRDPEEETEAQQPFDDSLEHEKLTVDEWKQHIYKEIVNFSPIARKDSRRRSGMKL
T25 sequence (Q9UQ88 whole entry): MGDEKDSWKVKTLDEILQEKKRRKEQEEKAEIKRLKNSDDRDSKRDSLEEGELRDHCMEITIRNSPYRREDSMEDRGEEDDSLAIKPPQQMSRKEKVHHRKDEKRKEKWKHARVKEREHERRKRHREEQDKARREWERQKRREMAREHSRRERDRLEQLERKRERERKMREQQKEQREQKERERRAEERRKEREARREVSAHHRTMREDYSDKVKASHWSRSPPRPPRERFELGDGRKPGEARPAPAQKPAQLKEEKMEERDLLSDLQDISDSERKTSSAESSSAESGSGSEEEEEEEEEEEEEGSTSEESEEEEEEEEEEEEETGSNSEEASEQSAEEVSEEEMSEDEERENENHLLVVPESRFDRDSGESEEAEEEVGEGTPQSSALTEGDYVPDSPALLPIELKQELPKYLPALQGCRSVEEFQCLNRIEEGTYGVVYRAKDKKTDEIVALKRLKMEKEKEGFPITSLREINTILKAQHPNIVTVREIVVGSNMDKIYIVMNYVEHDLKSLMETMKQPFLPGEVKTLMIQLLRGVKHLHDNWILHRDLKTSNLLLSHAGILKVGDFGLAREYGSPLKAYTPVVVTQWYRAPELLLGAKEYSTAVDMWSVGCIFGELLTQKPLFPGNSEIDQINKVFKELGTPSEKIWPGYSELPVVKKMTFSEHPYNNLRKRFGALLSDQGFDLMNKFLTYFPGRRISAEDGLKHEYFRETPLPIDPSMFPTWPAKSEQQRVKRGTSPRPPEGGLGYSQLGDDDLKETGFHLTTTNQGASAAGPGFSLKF
Chain of ABL1-nonphosphorylated (P00519 whole entry): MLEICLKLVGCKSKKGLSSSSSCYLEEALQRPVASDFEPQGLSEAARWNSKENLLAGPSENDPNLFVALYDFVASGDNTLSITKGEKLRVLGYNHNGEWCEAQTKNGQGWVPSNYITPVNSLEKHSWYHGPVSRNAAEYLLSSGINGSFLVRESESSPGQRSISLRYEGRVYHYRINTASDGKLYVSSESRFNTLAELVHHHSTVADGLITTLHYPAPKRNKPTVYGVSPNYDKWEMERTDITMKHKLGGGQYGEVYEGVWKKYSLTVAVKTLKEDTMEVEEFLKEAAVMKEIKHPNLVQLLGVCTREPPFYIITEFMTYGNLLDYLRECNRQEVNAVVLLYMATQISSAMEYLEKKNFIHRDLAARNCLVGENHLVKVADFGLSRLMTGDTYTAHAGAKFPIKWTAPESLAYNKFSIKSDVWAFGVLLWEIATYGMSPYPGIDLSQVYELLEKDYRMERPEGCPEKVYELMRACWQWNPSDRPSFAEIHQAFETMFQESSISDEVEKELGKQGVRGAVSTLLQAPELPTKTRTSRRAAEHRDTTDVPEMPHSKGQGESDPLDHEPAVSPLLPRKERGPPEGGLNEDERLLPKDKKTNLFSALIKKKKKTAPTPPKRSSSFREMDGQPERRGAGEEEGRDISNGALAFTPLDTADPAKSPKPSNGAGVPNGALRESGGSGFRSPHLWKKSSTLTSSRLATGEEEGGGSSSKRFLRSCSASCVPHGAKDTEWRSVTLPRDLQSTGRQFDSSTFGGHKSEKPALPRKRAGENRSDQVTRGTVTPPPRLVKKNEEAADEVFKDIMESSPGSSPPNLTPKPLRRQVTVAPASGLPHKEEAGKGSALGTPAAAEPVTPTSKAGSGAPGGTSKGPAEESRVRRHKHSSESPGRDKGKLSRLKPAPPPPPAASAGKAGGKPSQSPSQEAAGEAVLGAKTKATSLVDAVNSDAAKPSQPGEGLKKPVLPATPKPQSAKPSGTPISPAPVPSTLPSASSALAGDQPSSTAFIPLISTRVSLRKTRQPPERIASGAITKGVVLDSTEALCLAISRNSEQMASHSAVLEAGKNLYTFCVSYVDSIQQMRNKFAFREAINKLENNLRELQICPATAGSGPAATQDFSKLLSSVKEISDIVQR
T23 sequence (Q96PN8 whole entry): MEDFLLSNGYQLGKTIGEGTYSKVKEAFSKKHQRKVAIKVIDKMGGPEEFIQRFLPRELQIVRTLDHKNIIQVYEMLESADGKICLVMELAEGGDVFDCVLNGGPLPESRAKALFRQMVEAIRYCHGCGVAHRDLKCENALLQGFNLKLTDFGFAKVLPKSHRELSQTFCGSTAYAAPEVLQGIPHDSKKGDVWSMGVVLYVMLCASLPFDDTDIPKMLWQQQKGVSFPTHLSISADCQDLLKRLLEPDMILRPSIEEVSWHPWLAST
T6 sequence (Q09013 whole entry): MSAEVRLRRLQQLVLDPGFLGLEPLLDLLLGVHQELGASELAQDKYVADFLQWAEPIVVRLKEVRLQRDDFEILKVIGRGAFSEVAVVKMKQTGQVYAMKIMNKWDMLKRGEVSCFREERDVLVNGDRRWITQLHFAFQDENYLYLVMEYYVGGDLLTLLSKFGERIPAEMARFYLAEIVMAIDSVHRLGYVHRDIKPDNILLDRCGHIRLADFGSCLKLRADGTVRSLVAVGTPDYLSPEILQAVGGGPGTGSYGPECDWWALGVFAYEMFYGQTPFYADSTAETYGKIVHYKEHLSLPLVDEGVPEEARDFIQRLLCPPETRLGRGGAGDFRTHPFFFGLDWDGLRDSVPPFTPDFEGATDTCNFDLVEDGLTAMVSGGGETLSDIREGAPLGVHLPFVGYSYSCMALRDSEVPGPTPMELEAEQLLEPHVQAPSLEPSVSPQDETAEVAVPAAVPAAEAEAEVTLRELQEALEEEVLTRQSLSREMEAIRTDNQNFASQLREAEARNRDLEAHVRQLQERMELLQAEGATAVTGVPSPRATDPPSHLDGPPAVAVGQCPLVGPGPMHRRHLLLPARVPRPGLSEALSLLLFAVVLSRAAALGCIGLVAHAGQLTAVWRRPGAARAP

CN(C)C(=O)c1ccc(N2CCCN(c3ccnc4sc(C(N)=O)c(N)c34)CC2)cc1 [15u, 3-amino-4-(4-(4-(dimethylcarbamoyl)phenyl)-1,4-diazepan-1-yl)thieno[2,3-b]pyridine-2-carboxamide]
% Ctrl (FLT1): 100 % Ctrl
% Ctrl (LRRK2(G2019S)): 90 % Ctrl
% Ctrl (LKB1): 100 % Ctrl
% Ctrl (FLT3(D835H)): 63 % Ctrl
% Ctrl (NEK9): 100 % Ctrl
% Ctrl (DMPK): 97 % Ctrl
% Ctrl (TIE2): 72 % Ctrl
% Ctrl (PHKG1): 94 % Ctrl
% Ctrl (PIK4CB): 65 % Ctrl
% Ctrl (PIP5K2C): 80 % Ctrl
% Ctrl (FLT3(K663Q)): 96 % Ctrl
% Ctrl (EGFR(E746-A750del)): 100 % Ctrl
% Ctrl (FES): 100 % Ctrl
% Ctrl (MKNK2): 83 % Ctrl
% Ctrl (EGFR(G719C)): 97 % Ctrl
% Ctrl (FGFR1): 98 % Ctrl
% Ctrl (RIOK2): 35 % Ctrl
% Ctrl (MKNK1): 94 % Ctrl
% Ctrl (TAK1): 93 % Ctrl
% Ctrl (MET(Y1235D)): 100 % Ctrl
% Ctrl (MUSK): 94 % Ctrl
% Ctrl (LATS2): 94 % Ctrl
% Ctrl (TSSK3): 93 % Ctrl
% Ctrl (ABL1-nonphosphorylated): 95 % Ctrl
% Ctrl (MAP4K5): 100 % Ctrl
% Ctrl (JNK2): 99 % Ctrl
% Ctrl (CDC2L2): 100 % Ctrl
% Ctrl (BTK): 81 % Ctrl
% Ctrl (YANK2): 89 % Ctrl
% Ctrl (AURKB): 91 % Ctrl
% Ctrl (p38-delta): 96 % Ctrl
% Ctrl (CIT): 51 % Ctrl
% Ctrl (NEK5): 94 % Ctrl
% Ctrl (MLK2): 100 % Ctrl
% Ctrl [1]: 94 % Ctrl

[2H]C([2H])([2H])N(C(=O)c1ccc(N2CCCN(c3ccnc4sc(C(N)=O)c(N)c34)CC2)cc1)C([2H])([2H])[2H] [15u_D6, 3-amino-4-(4-(4-(bis(methyl-d3)carbamoyl)phenyl)-1,4-diazepan-1-yl)thieno[2,3-b]pyridine-2-carboxamide]
% Ctrl (FLT1): 100 % Ctrl
% Ctrl (LRRK2(G2019S)): 76 % Ctrl
% Ctrl (LKB1): 87 % Ctrl
% Ctrl (FLT3(D835H)): 76 % Ctrl
% Ctrl (NEK9): 89 % Ctrl
% Ctrl (DMPK): 97 % Ctrl
% Ctrl (TIE2): 100 % Ctrl
% Ctrl (PHKG1): 97 % Ctrl
% Ctrl (PIK4CB): 33 % Ctrl
% Ctrl (PIP5K2C): 64 % Ctrl
% Ctrl (FLT3(K663Q)): 91 % Ctrl
% Ctrl (EGFR(E746-A750del)): 100 % Ctrl
% Ctrl (FES): 100 % Ctrl
% Ctrl (MKNK2): 69 % Ctrl
% Ctrl (EGFR(G719C)): 100 % Ctrl
% Ctrl (FGFR1): 92 % Ctrl
% Ctrl (RIOK2): 3.9 % Ctrl
% Ctrl (MKNK1): 79 % Ctrl
% Ctrl (TAK1): 62 % Ctrl
% Ctrl (MET(Y1235D)): 100 % Ctrl
% Ctrl (MUSK): 82 % Ctrl
% Ctrl (LATS2): 31 % Ctrl
% Ctrl (TSSK3): 100 % Ctrl
% Ctrl (ABL1-nonphosphorylated): 78 % Ctrl
% Ctrl (MAP4K5): 97 % Ctrl
% Ctrl (JNK2): 54 % Ctrl
% Ctrl (CDC2L2): 100 % Ctrl
% Ctrl (BTK): 77 % Ctrl
% Ctrl (YANK2): 84 % Ctrl
% Ctrl (AURKB): 90 % Ctrl
% Ctrl (p38-delta): 97 % Ctrl
% Ctrl (CIT): 65 % Ctrl
% Ctrl (NEK5): 100 % Ctrl
% Ctrl (MLK2): 95 % Ctrl
% Ctrl [1]: 92 % Ctrl
